In patent publication US8188003B2, “Method of inducing virus tolerance of plants” (BASF Aktiengesellschaft, priority 2005, dated 2012):

Assays:
TMV [1] = experiment: Use example 3: leaf halves infiltrated, TMV infection 1 day after treatment, lesion area versus control; type: in vivo, tobacco plants (cultivar Xanthi-nc); details: 1 mM in 1% aqueous ethanol, evaluated after further 5 days
Procedure: (§1) Leaf halves of approx. 5-weeks-old tobacco plants (cultivar Xanthi-nc) were infiltrated with 1 mM active ingredient solution in 1% aqueous ethanol; the leaf halves of the controls were infiltrated with 1% aqueous ethanol.
(§2) Infection with TMV was carried our 1 day after treatment; the plants were evaluated after further 5 days. The data shown are the averages of the leaf areas which had died owing to viral attack (lesions) at the infection site on leaf halves treated with active ingredient or untreated leaf halves (controls):
(§3) Area of the lesions in comparison with the control: […]

TMV [2] = experiment: Use example 5: spraying the leaves with active ingredient solutions, TMV infection 5 days after treatment, lesion area versus control; type: in vivo, tobacco plants (cultivar Xanthi-nc); details: 2 mM with universal wetter 1:1 (w/w), sprayed, evaluated after further 4 days
Procedure: In each case 2 mM active ingredient were dissolved in water with the aid of a universal wetter in the ratio 1:1 (w/w) and sprayed onto the leaf halves of 5-week-old tobacco plants (cultivar Xanthi-nc) (leaf halves of the controls were sprayed with dissolved wetter only).
as §2, with “out 5 days” for “our 1 day”, “the treatment, and” for “treatment;”, “4” for “5”
as §3

TMV [3] = experiment: Use example 4: leaf halves infiltrated, TMV infection 2 days after treatment, lesion area versus control; type: in vivo, tobacco plants (cultivar Xanthi-nc); details: 1 mM in 1% aqueous ethanol, evaluated after further 5 days
Procedure: as §1
The procedure of use example 3 was followed, but infection was carried out 2 days after the treatment and the plants were evaluated after further 5 days.
as §3

TMV [4] = experiment: Use example 6: plant growth and tolerance to viral infection of TMV-inoculated tomato plants after spray treatment; type: in vivo, Tomato plants (cultivar Gaucho)
Procedure: The experiments were performed in greenhouse of under appropriate growing conditions for tomatoes. Tomato plants (cultivar Gaucho) were grown in pots until development of the first two true leaves. Then the plantlets were sprayed with different concentrations of formulated Pyraclostrobin (compound I-5; commercial fungicide Cabrio Top® of BASF Aktiengesellschaft). These treatments were done either 120 hours before or following inoculation of the plantlets with TMV, representing protective and curative situation. The treatments were run with 5 replicates, each containing 3 plantlets. 30 days after last treatment the plants were analyzed for visual plant growth (altitude and dry mass) and chlorophyll content (photometric measurement of extracts). Also the virus titre was determined (ELISA).
Same letters indicate non significant differences (Tukey; P≦0.05).

[5] = test system: tobacco mosaic virus (TMV, strain U1); experiment: Use example 1: active ingredient solution injected into tobacco leaves, TMV infection, lesion diameter; type: in vivo, tobacco plants (Nicotinia tabacum cv. Xanthi-nc); details: injected into leaf, infection 1 day after pretreatment, after 7 days, water control 3.55 mm
Procedure: (§4) For the experiments, tobacco plants (Nicotinia tabacum cv. Xanthi-nc) were grown at 25° C., an atmospheric humidity of 59% and a daily photoperiod of 16 hours (150-200 μM quanta/s^−1/m^−2) for 4 to 5 weeks in potting compost (standard soil type ED 73). Some of the plants were fed once per week by adding a commercial house-plant fertilizer (10% total nitrogen, 9% phosphate, 7% potash) to the irrigation water at the recommended rate.
(§5) The formulated active ingredient used took the form of water-dispersible granules with an active ingredient content of 20%. The concentrations used in the experiments (0.01-10 mM) are based on the active ingredient content. To prevent distribution of the active ingredient in the entire plant, the stalks of plants where a leaf had been infiltrated were removed above the treated leaf, using a sterile surgical blade.
(§6) After the application of the active ingredient, and also after infection with the virus at a later time, the plants were left to stand in the growth cabinet.
(§7) The various pretreated tobacco plants were infected with tobacco mosaic virus (TMV, strain U1). […] Five to 7 days post-infection, the diameter of 10 to 20 lesions on the leaves was determined. […]
After 7 days, the diameter of the lesions on the leaves caused by TMV was determined in millimeters [mm].

[6] = test system: tobacco mosaic virus (TMV, strain U1); experiment: Use example 2: one leaf half infiltrated with active ingredient solution, TMV infection, lesion diameter; type: in vivo, tobacco plants (Nicotinia tabacum cv. Xanthi-nc); details: after 5 days
Procedure: as §4, §5, §6, §7
After 5 days, the diameter of the lesions on the leaves caused by TMV was determined in millimeters [mm].

Compound | Area of the lesions in comparison with the control, Area in percent (TMV [1]) | Area of the lesions in comparison with the control, Area in percent (TMV [2]) | Area of the lesions in comparison with the control, Area In percent (TMV [3]) | effect compared with untreated plants (TMV [4]; Curative treatment) | effect on growth inhibition and loss of leaf chlorophyll caused by TMV infection (TMV [4]; protective treatment) | diameter of the lesions on the leaves caused by TMV (average) ([5]; 1 mM) | diameter of the lesions on the leaves caused by TMV (average) ([5]; 2.5 mM) | diameter of the lesions on the leaves caused by TMV (average), treated leaf zones ([6]; 0.5 mM, water control plants 3.2 mm) | diameter of the lesions on the leaves caused by TMV (average), treated leaf zones ([6]; 1 mM, water control plants 3.35 mm)
CNC(=O)/C(=N/OC)c1ccccc1CO/N=C(C)/C(=N/OC)C(/C)=N/OC [Compound V-16, orysastrobin] | 63.8% |  |  |  |  |  |  |  | 
CNC(=O)/C(=N/OC)c1ccccc1COc1cc(C)ccc1C [II-3, dimoxystrobin] | 68.1% | 49.6% | 62.7% |  |  |  |  |  | 
CO/C=C(/C(=O)OC)c1ccccc1Oc1cc(Oc2ccccc2C#N)ncn1 [VII-1, azoxystrobin] | 62.1% | 68.3% | 70.4% |  |  |  |  |  | 
pyraclostrobin [Compound I-5] | 53.0% |  |  | no advantage compared with untreated plants | can prevent growth inhibition and loss of leaf chlorophyll caused by TMV infection | 2.35 mm | 1.8 mm | 2.75 mm | 2.85 mm
